Reference: PMC9758846, “Dinuclear and mononuclear metal(II) polypyridyl complexes against drug-sensitive and drug-resistant Plasmodium falciparum and their mode of action” (Malaria Journal, 2022)
Several values for one entry are separate records, joined by “and”; a condition that tells them apart may be missing. Identical values can stand only once.

What was measured:
[1] = test system: Plasmodium falciparum 3D7 (Pf3D7); assay: In vitro anti-malarial activity using SYBR Green I nucleic acid dye; assay type: cell-based; details: 72 h incubation; read-out: IC50 of Pf3D7
Experimental: (§1) The drug-sensitive strain of P. falciparum 3D7 (Pf3D7) was obtained from the Department of Science, Monash University, Malaysia and cultured as previously described. The artemisinin-resistant strain of P. falciparum IPC5202 (Pf5202) was obtained from BEI Resources and cultured as mentioned in the product sheet. Both strains were maintained in sealed flask at 37 °C in a humidified atmosphere of 5% O2, 5% CO2 and 90% N2. All buffer stock solutions for biological assays were autoclaved at 121 °C for 15 min.
(§2) Previously reported anti-malarial assay was used with slight modification using 1% parasitaemia (ring-stage) and 5% haematocrit treated with test compounds at increasing concentration and incubated for 72 h at 37 °C [21–23]. After the incubation, the assay was terminated by freeze/thaw cycle (− 80 °C overnight before thawing for 2 h) before the addition of lysis buffer containing SYBR Green I dye into each well and mixed thoroughly using the belly dancer for 30 min in the dark. Chloroquine diphosphate salt and artemisinin were used as standard drugs. The fluorescence signal was quantified at 485 nm excitation wavelength and 528 nm emission wavelength. IC50 values of each test compound was determined from a dose response curve by non-linear regression analysis.

[2] = test system: Plasmodium falciparum IPC5202 (Pf5202); assay: as above; assay type: cell-based; details: 72 h incubation; read-out: IC50 of Pf5202
Experimental: as §1, §2

[3] = test system: B+ blood red blood cells (RBC); assay: In vitro haemolytic assay; assay type: cell-based, human; details: 72 h, B+ blood
Experimental: Fresh B+ blood was washed with RPMI1640 medium containing of 30 µg/mL gentamicin (Gibco) and centrifuged at 1000 xg for 10 min three times. The percentage of haemolysis was determined spectroscopically using 5% haematocrit containing test compound at increasing concentration and incubated for 72 h at 37 °C [19, 20]. Untreated blood acted as negative control while blood treated with sterile distilled water acted as positive control (for 100% haemolysis).

[4] = PNDA assay of •OH radicals from reaction with H2O2; details: 30 µM compound with excess H2O2
Experimental: A previously reported spectrometric assay using PNDA was used to quantify the amount of reactive oxygen species (ROS), viz. •OH radicals, produced by the reaction of metal(II) complexes with hydrogen peroxide in borate buffer at pH 7.5 [24–26]. The percentage of PNDA bleaching and the concentration of •OH produced were determined.

[5] = test system: Pf3D7; assay: Intracellular ROS level using DCFH-DA; assay type: cell-based, Plasmodium falciparum
Experimental: (§3) After incubation, packed cells were washed with phosphate buffer saline (PBS) solution. […] The data was expressed as fold change between amount of ROS produced by treated P. falciparum against untreated P. falciparum. Normalization was done with the percentage of parasite viability obtained at each condition. Hydrogen peroxide was used as positive control.

[6] = test system: Pf5202; assay: Intracellular ROS level using DCFH-DA; assay type: cell-based, Plasmodium falciparum
Experimental: as §3

[7] = test system: Pf3D7; assay: JC-1 mitochondrial membrane potential study; assay type: cell-based, Plasmodium falciparum; details: JC-1 red/green fluorescence ratio
Experimental: (§4) Mitochondrial membrane potential was investigated using a BD™ MitoScreen Flow Cytometry Mitochondrial Membrane Potential Detection JC-1 kit. In brief, parasitized red blood cells were treated with test compounds at desired concentrations for 12 and 48 h at 37 °C. After incubation, packed cells were stained as per manufacturer’s instructions. Dissipation in Δψm was measured by calculating the ratio between the red and green fluorescence.

[8] = test system: Pf5202; assay: JC-1 mitochondrial membrane potential study; assay type: cell-based, Plasmodium falciparum; details: JC-1 red/green fluorescence ratio
Experimental: as §4

[9] = test system: Pf3D7; assay: Nuclear morphology study by Hoechst staining; assay type: cell-based, Plasmodium falciparum; details: Pf3D7-infected RBC; 72 h; 0.2-25 µM
Experimental: Detections of haemolytic and apoptotic morphological features were examined on Giemsa-stained thin blood smear. The parasite was then visualised with oil immersion (100 × magnification) using upright brightfield microscope. Another thin blood smear was prepared, fixed with methanol, stained in 10 µg/mL of Hoechst 33,258 stain, and kept in the dark for 30 min at room temperature. A cover slip was applied, and the nuclear morphological examination was then visualized with at 100 × magnification with oil by fluorescence microscope using DAPI filter.
The morphological features of apoptosis of P. falciparum can be indicated by chromosome condensation and fragmentation of the P. falciparum nuclei in the non-nuclear RBC cells. The condensed chromosomes would be stained bright blue. The pRBC cells were treated with (1) and (3) respectively for 72 h, and the resultant pRBC were visualized and photographed at 100 × magnification with oil immersion. Typical images were enlarged to look at single cells and are depicted in Fig. 9 for Pf3D7 and Fig. 10 for Pf5202. […] The nuclei of P. falciparum trophozoites in pRBC were observed under brightfield microscope as dots, and they were stained brighter blue which increased in fluorescence intensity with increasing concentration of copper(II) complexes of (1) and (3) from 0.2, 1, 5 to 25 µM compared to the untreated pRBC.

## O.O=[N+]([O-])[O-].O=[N+]([O-])[O-].[Cu+2].c1cnc2c(c1)ccc1cccnc12.c1cnc2c(c1)ccc1cccnc12 [Complex 1, [Cu(phen)2](NO3)2·H2O]
[1]
  IC50: 3510 ± 470 nM
[2]
  IC50: 17900 ± 2730 nM
[3]; 1 µM
  Percentage of haemolysis (haemolytic index, HI): 4%
[3]; 5 µM
  Percentage of haemolysis (haemolytic index, HI): 80%
[3]; 25 µM
  Percentage of haemolysis (haemolytic index, HI): 43%
[4]; 2 h
  Concentration of •OH radical: 32.20 ± 2.93 µM
[4]; 4 h
  Concentration of •OH radical: 34.36 ± 2.62 µM
[4]; 24 h
  Concentration of •OH radical: 35.43 ± 1.22 µM
[4]; 48 h
  Concentration of •OH radical: 32.19 ± 0.52 µM
[4]; 72 h
  Concentration of •OH radical: 28.96 ± 0.38 µM
[5]; 24 h, 0.2 µM
  fold change in ROS: 1.44 ± 0.10 fold
[5]; 24 h, 1.0 µM
  fold change in ROS: 1.54 ± 0.26 fold
[5]; 24 h, 5.0 µM
  fold change in ROS: 2.28 ± 0.25 fold
[5]; 24 h, 25.0 µM
  fold change in ROS: 7.59 ± 0.46 fold
[5]; 48 h, 0.2 µM
  fold change in ROS: 2.45 ± 0.41 fold
[5]; 48 h, 1.0 µM
  fold change in ROS: 3.20 ± 0.19 fold
[5]; 48 h, 5.0 µM
  fold change in ROS: 4.54 ± 0.52 fold
[5]; 48 h, 25.0 µM
  fold change in ROS: 6.83 ± 0.83 fold
[5]; 72 h, 0.2 µM
  fold change in ROS: 0.00 ± 0.10 fold
[6]; 24 h, 0.2 µM
  fold change in ROS: 1.04 ± 0.03 fold
[6]; 24 h, 1.0 µM
  fold change in ROS: 0.86 ± 0.04 fold
[6]; 24 h, 5.0 µM
  fold change in ROS: 0.59 ± 0.02 fold
[6]; 24 h, 25.0 µM
  fold change in ROS: 0.04 ± 0.03 fold
[6]; 48 h, 0.2 µM
  fold change in ROS: 0.32 ± 0.02 fold
[6]; 48 h, 1.0 µM
  fold change in ROS: 0.33 ± 0.05 fold
[6]; 48 h, 5.0 µM
  fold change in ROS: 0.72 ± 0.12 fold
[6]; 48 h, 25.0 µM
  fold change in ROS: 0.52 ± 0.26 fold
[6]; 72 h, 0.2 µM
  fold change in ROS: 1.09 ± 0.07 fold
[6]; 72 h, 1.0 µM
  fold change in ROS: 1.33 ± 0.41 fold
[6]; 72 h, 5.0 µM
  fold change in ROS: 1.69 ± 0.22 fold
[7]; 12 h, 1 µM
  Mitochondrial membrane potential (Δψm): 17.2 ± 12.8
[7]; 12 h, 5 µM
  Mitochondrial membrane potential (Δψm): 29.7 ± 12.1
[7]; 12 h, 25 µM
  Mitochondrial membrane potential (Δψm): 1.9 ± 1.1
[7]; 48 h, 1 µM
  Mitochondrial membrane potential (Δψm): 41.1 ± 5.1
[7]; 48 h, 5 µM
  Mitochondrial membrane potential (Δψm): 43.6 ± 15.0
[7]; 48 h, 25 µM
  Mitochondrial membrane potential (Δψm): 0.5 ± 0.3
[8]; 12 h, 1 µM
  Mitochondrial membrane potential (Δψm): 18.9 ± 2.8
[8]; 12 h, 5 µM
  Mitochondrial membrane potential (Δψm): 17.5 ± 3.5
[8]; 12 h, 25 µM
  Mitochondrial membrane potential (Δψm): 1.1 ± 0.6
[8]; 48 h, 1 µM
  Mitochondrial membrane potential (Δψm): 10.4 ± 3.1
[8]; 48 h, 5 µM
  Mitochondrial membrane potential (Δψm): 6.0 ± 1.8
[8]; 48 h, 25 µM
  Mitochondrial membrane potential (Δψm): 1.2 ± 0.1
[9]
  Type of cell death by nuclear morphology (Hoechst): underwent apoptosis

## [Cu(phen)(NO3)(H2O)-4,4′-bipy-Cu(phen)(NO3)(H2O)](NO3)2 [Complex 3]
[1]
  IC50: 900 ± 120 nM
[2]
  IC50: 2200 nM and 2210 nM
[3]; 1 µM
  Percentage of haemolysis (haemolytic index, HI): 35%
[3]; 5 µM
  Percentage of haemolysis (haemolytic index, HI): 96%
[3]; 25 µM
  Percentage of haemolysis (haemolytic index, HI): 36%
[4]; 2 h
  Concentration of •OH radical: 21.13 ± 0.41 µM
[4]; 4 h
  Concentration of •OH radical: 22.16 ± 0.36 µM
[4]; 24 h
  Concentration of •OH radical: 23.51 ± 1.09 µM
[4]; 48 h
  Concentration of •OH radical: 21.29 ± 1.67 µM
[4]; 72 h
  Concentration of •OH radical: 18.89 ± 1.45 µM
[5]; 24 h, 0.2 µM
  fold change in ROS: 1.76 ± 0.47 fold
[5]; 24 h, 1.0 µM
  fold change in ROS: 1.13 ± 0.56 fold
[5]; 24 h, 5.0 µM
  fold change in ROS: 2.30 ± 0.86 fold
[5]; 24 h, 25.0 µM
  fold change in ROS: 5.36 ± 0.30 fold
[5]; 48 h, 0.2 µM
  fold change in ROS: 1.20 ± 0.64 fold
[5]; 48 h, 1.0 µM
  fold change in ROS: 1.28 ± 0.31 fold
[5]; 48 h, 5.0 µM
  fold change in ROS: 3.80 ± 1.18 fold
[5]; 48 h, 25.0 µM
  fold change in ROS: 5.46 ± 0.25 fold
[5]; 72 h, 0.2 µM
  fold change in ROS: 1.49 ± 0.10 fold
[5]; 72 h, 1.0 µM
  fold change in ROS: 1.77 ± 0.24 fold
[5]; 72 h, 5.0 µM
  fold change in ROS: 1.68 ± 0.41 fold
[5]; 72 h, 25.0 µM
  fold change in ROS: 2.74 ± 0.24 fold
[6]; 24 h, 0.2 µM
  fold change in ROS: 0.04 ± 0.33 fold
[6]; 48 h, 0.2 µM
  fold change in ROS: 0.52 ± 0.60 fold
[6]; 48 h, 1.0 µM
  fold change in ROS: 0.66 ± 0.50 fold
[6]; 48 h, 5.0 µM
  fold change in ROS: 2.53 ± 0.85 fold
[6]; 48 h, 25.0 µM
  fold change in ROS: 3.39 ± 0.66 fold
[6]; 72 h, 5.0 µM
  fold change in ROS: 8.43 ± 0.60 fold
[7]; 12 h, 1 µM
  Mitochondrial membrane potential (Δψm): 24.2 ± 1.6
[7]; 12 h, 5 µM
  Mitochondrial membrane potential (Δψm): 49.3 ± 23.8
[7]; 12 h, 25 µM
  Mitochondrial membrane potential (Δψm): 0.4 ± 0.2
[7]; 48 h, 1 µM
  Mitochondrial membrane potential (Δψm): 45.0 ± 26.4
[7]; 48 h, 5 µM
  Mitochondrial membrane potential (Δψm): 4.7 ± 2.6
[7]; 48 h, 25 µM
  Mitochondrial membrane potential (Δψm): 0.1 ± 0.04
[8]; 12 h, 1 µM
  Mitochondrial membrane potential (Δψm): 17.5 ± 2.2
[8]; 12 h, 5 µM
  Mitochondrial membrane potential (Δψm): 16.6 ± 4.6
[8]; 12 h, 25 µM
  Mitochondrial membrane potential (Δψm): 0.5 ± 0.1
[8]; 48 h, 1 µM
  Mitochondrial membrane potential (Δψm): 19.2 ± 8.4
[8]; 48 h, 5 µM
  Mitochondrial membrane potential (Δψm): 0.6 ± 0.1
[8]; 48 h, 25 µM
  Mitochondrial membrane potential (Δψm): 0.1 ± 0.01
[9]
  Type of cell death by nuclear morphology (Hoechst): underwent apoptosis
